Results: patent publication US20020111274A1, “1-alkyl-3-[1-(substituted phenyl) benzotriazol-6-yl] uracils” (BASF Aktiengesellschaft, priority 2000, published 2002)

Columns and labels:
Design in all cases: scale not given here
SETVI Foxtail, Green [1] = test: Postemergence herbicidal evaluation, SETVI; type: in vivo, Setaria viridis, (L.) Beau; settings: postemergence spray, rated about two-three weeks after treatment
Summary of the method: (§1)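 Ratings from greenhouse plants scored about two to three weeks after a foliar spray; data from multiple tests averaged. Seedlings about two weeks old received roughly 0.006–0.400 kg/ha active compound in 80/20 acetone/water with 1.0% methylated seed oil.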

ZEAMX Corn, Field [2] = test: Postemergence herbicidal evaluation, ZEAMX; type: in vivo, Zea mays, L. (Sammel-Bezeichnung); settings: postemergence spray, rated about two-three weeks after treatment
Summary of the method: as §1

GLXMAW Soybean, Williams [3] = test: Postemergence herbicidal evaluation, GLXMAW; type: in vivo, Glycine max, (L.) Merr. cv Williams; settings: postemergence spray, rated about two-three weeks after treatment
Summary of the method: as §1

ZEAMX Corn, Field [4] = test: Preemergence herbicidal evaluation, ZEAMX; type: in vivo, Zea mays, L. (Sammel-Bezeichnung); settings: preemergence
Summary of the method: (§2)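 Visual ratings were taken four to five weeks after application. Before that, cups sown with seed in potting soil received a spray of compound dissolved in aqueous acetone, equivalent to about 0.013 to 0.800 kg/ha, and stood on greenhouse benches under conventional care.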

[5] = tested on: TRZAWR Wheat, Winter, cv Riband; test: Preemergence herbicidal evaluation, TRZAWR; type: in vivo, Triticum aestivum; settings: preemergence
Summary of the method: as §2

AMBEL Ragweed, Common [6] = test: Postemergence herbicidal evaluation, AMBEL; type: in vivo, Ambrosia artemisifolia, L.; settings: postemergence spray, rated about two-three weeks after treatment
Summary of the method: as §1

[7] = tested on: CHEAL Lambsquarters, Common; test: Postemergence herbicidal evaluation, CHEAL; type: in vivo, Chenopodium album, L.; settings: postemergence spray, rated about two-three weeks after treatment
Summary of the method: as §1

ORYSAT Rice, Tebonnet [8] = test: Postemergence herbicidal evaluation, ORYSAT; type: in vivo, Oryza sativa, (L.); settings: postemergence spray, rated about two-three weeks after treatment
Summary of the method: as §1

ABUTH Velvetleaf [9] = test: Preemergence herbicidal evaluation, ABUTH; type: in vivo, Abutilon theophrasti, Medic.; settings: preemergence
Summary of the method: as §2

AMBEL Ragweed, Common [10] = test: Preemergence herbicidal evaluation, AMBEL; type: in vivo, Ambrosia artemisifolia, L.; settings: preemergence
Summary of the method: as §2

SETVI Foxtail, Green [11] = test: Preemergence herbicidal evaluation, SETVI; type: in vivo, Setaria viridis, (L.) Beau; settings: preemergence
Summary of the method: as §2

[12] = tested on: IPOHE Morningglory, Ivyleaf; test: Preemergence herbicidal evaluation, IPOHE; type: in vivo, Ipomoea hederacea, (L.) Jacq.; settings: preemergence
Summary of the method: as §2

GLXMAW Soybean, Williams [13] = test: Preemergence herbicidal evaluation, GLXMAW; type: in vivo, Glycine max, (L.) Merr. cv Williams; settings: preemergence
Summary of the method: as §2

[14] = tested on: TRZAWR Wheat, Winter, cv Riband; test: Postemergence herbicidal evaluation, TRZAWR; type: in vivo, Triticum aestivum; settings: postemergence spray, rated about two-three weeks after treatment
Summary of the method: as §1

GALAP Galium [15] = test: Postemergence herbicidal evaluation, GALAP; type: in vivo, Galium aparine; settings: postemergence spray, rated about two-three weeks after treatment
Summary of the method: as §1

ORYSAT Rice, Tebonnet [16] = test: Preemergence herbicidal evaluation, ORYSAT; type: in vivo, Oryza sativa, (L.); settings: preemergence
Summary of the method: as §2

ECHOG Barnyardgrass [17] = test: Postemergence herbicidal evaluation, ECHOG; type: in vivo, Echinochloa crus-galli, (L.) Beau; settings: postemergence spray, rated about two-three weeks after treatment
Summary of the method: as §1

CASOB Sicklepod [18] = test: Postemergence herbicidal evaluation, CASOB; type: in vivo, Cassia obtusifolia, L.; settings: postemergence spray, rated about two-three weeks after treatment
Summary of the method: as §1

[19] = tested on: IPOHE Morningglory, Ivyleaf; test: Postemergence herbicidal evaluation, IPOHE; type: in vivo, Ipomoea hederacea, (L.) Jacq.; settings: postemergence spray, rated about two-three weeks after treatment
Summary of the method: as §1

ABUTH Velvetleaf [20] = test: Postemergence herbicidal evaluation, ABUTH; type: in vivo, Abutilon theophrasti, Medic.; settings: postemergence spray, rated about two-three weeks after treatment
Summary of the method: as §1

GALAP Galium [21] = test: Preemergence herbicidal evaluation, GALAP; type: in vivo, Galium aparine; settings: preemergence
Summary of the method: as §2

CASOB Sicklepod [22] = test: Preemergence herbicidal evaluation, CASOB; type: in vivo, Cassia obtusifolia, L.; settings: preemergence
Summary of the method: as §2

ECHOG Barnyardgrass [23] = test: Preemergence herbicidal evaluation, ECHOG; type: in vivo, Echinochloa crus-galli, (L.) Beau; settings: preemergence
Summary of the method: as §2

[24] = tested on: CHEAL Lambsquarters, Common; test: Preemergence herbicidal evaluation, CHEAL; type: in vivo, Chenopodium album, L.; settings: preemergence
Summary of the method: as §2

C#CCOC(=O)COc1ccc(C)c(-n2nnc3cc(F)c(-n4c(=O)cc(C(F)(F)F)n(C)c4=O)cc32)c1 [Example 36]
1.5: Postemergence herbicidal rating ORYSAT (ORYSAT Rice, Tebonnet [8]; 0.008 kg/ha) | ABUTH herbicidal rating (ABUTH Velvetleaf [9]; rate 0.032 kg/ha) | ORYSAT herbicidal rating (ORYSAT Rice, Tebonnet [16]; rate 0.125 kg/ha)
2.0: Postemergence herbicidal rating AMBEL (AMBEL Ragweed, Common [6]; 0.008 kg/ha) | Postemergence herbicidal rating CHEAL ([7]; 0.032 kg/ha) | AMBEL herbicidal rating (AMBEL Ragweed, Common [10]; rate 0.032 kg/ha) | AMBEL herbicidal rating (AMBEL Ragweed, Common [10]; rate 0.062 kg/ha) | Postemergence herbicidal rating GALAP (GALAP Galium [15]; 0.032 kg/ha) | Postemergence herbicidal rating ABUTH (ABUTH Velvetleaf [20]; 0.008 kg/ha)
6.0: Postemergence herbicidal rating TRZAWR ([14]; 0.032 kg/ha)
7.5: Postemergence herbicidal rating ZEAMX (ZEAMX Corn, Field [2]; 0.008 kg/ha) | Postemergence herbicidal rating ZEAMX (ZEAMX Corn, Field [2]; 0.016 kg/ha)
9.0: Postemergence herbicidal rating SETVI (SETVI Foxtail, Green [1]; 0.062 kg/ha) | Postemergence herbicidal rating IPOHE ([19]; 0.032 kg/ha) | Postemergence herbicidal rating IPOHE ([19]; 0.062 kg/ha) | Postemergence herbicidal rating ABUTH (ABUTH Velvetleaf [20]; 0.032 kg/ha) | Postemergence herbicidal rating ABUTH (ABUTH Velvetleaf [20]; 0.062 kg/ha) | CHEAL herbicidal rating ([24]; rate 0.062 kg/ha) | CHEAL herbicidal rating ([24]; rate 0.125 kg/ha)
7.0: Postemergence herbicidal rating SETVI (SETVI Foxtail, Green [1]; 0.032 kg/ha) | Postemergence herbicidal rating TRZAWR ([14]; 0.062 kg/ha) | Postemergence herbicidal rating ABUTH (ABUTH Velvetleaf [20]; 0.016 kg/ha)
8.5: Postemergence herbicidal rating ZEAMX (ZEAMX Corn, Field [2]; 0.062 kg/ha)
2.5: Postemergence herbicidal rating ORYSAT (ORYSAT Rice, Tebonnet [8]; 0.032 kg/ha)
0.0: ZEAMX herbicidal rating (ZEAMX Corn, Field [4]; rate 0.016 kg/ha) | ZEAMX herbicidal rating (ZEAMX Corn, Field [4]; rate 0.032 kg/ha) | ZEAMX herbicidal rating (ZEAMX Corn, Field [4]; rate 0.062 kg/ha) | ZEAMX herbicidal rating (ZEAMX Corn, Field [4]; rate 0.125 kg/ha) | TRZAWR herbicidal rating ([5]; rate 0.016 kg/ha) | TRZAWR herbicidal rating ([5]; rate 0.032 kg/ha) | TRZAWR herbicidal rating ([5]; rate 0.062 kg/ha) | TRZAWR herbicidal rating ([5]; rate 0.125 kg/ha) | Postemergence herbicidal rating CHEAL ([7]; 0.008 kg/ha) | Postemergence herbicidal rating CHEAL ([7]; 0.016 kg/ha) | ABUTH herbicidal rating (ABUTH Velvetleaf [9]; rate 0.016 kg/ha) | AMBEL herbicidal rating (AMBEL Ragweed, Common [10]; rate 0.016 kg/ha) | SETVI herbicidal rating (SETVI Foxtail, Green [11]; rate 0.016 kg/ha) | SETVI herbicidal rating (SETVI Foxtail, Green [11]; rate 0.032 kg/ha) | SETVI herbicidal rating (SETVI Foxtail, Green [11]; rate 0.062 kg/ha) | IPOHE herbicidal rating ([12]; rate 0.016 kg/ha) | IPOHE herbicidal rating ([12]; rate 0.032 kg/ha) | IPOHE herbicidal rating ([12]; rate 0.062 kg/ha) | GLXMAW herbicidal rating (GLXMAW Soybean, Williams [13]; rate 0.016 kg/ha) | GLXMAW herbicidal rating (GLXMAW Soybean, Williams [13]; rate 0.032 kg/ha) | GLXMAW herbicidal rating (GLXMAW Soybean, Williams [13]; rate 0.062 kg/ha) | GLXMAW herbicidal rating (GLXMAW Soybean, Williams [13]; rate 0.125 kg/ha) | Postemergence herbicidal rating GALAP (GALAP Galium [15]; 0.008 kg/ha) | Postemergence herbicidal rating GALAP (GALAP Galium [15]; 0.016 kg/ha) | ORYSAT herbicidal rating (ORYSAT Rice, Tebonnet [16]; rate 0.016 kg/ha) | ORYSAT herbicidal rating (ORYSAT Rice, Tebonnet [16]; rate 0.032 kg/ha) | Postemergence herbicidal rating ECHCG (ECHOG Barnyardgrass [17]; 0.008 kg/ha) | Postemergence herbicidal rating ECHCG (ECHOG Barnyardgrass [17]; 0.016 kg/ha) | Postemergence herbicidal rating ECHCG (ECHOG Barnyardgrass [17]; 0.032 kg/ha) | Postemergence herbicidal rating CASOB (CASOB Sicklepod [18]; 0.008 kg/ha) | Postemergence herbicidal rating CASOB (CASOB Sicklepod [18]; 0.016 kg/ha) | Postemergence herbicidal rating CASOB (CASOB Sicklepod [18]; 0.032 kg/ha) | Postemergence herbicidal rating CASOB (CASOB Sicklepod [18]; 0.062 kg/ha) | GALAP herbicidal rating (GALAP Galium [21]; rate 0.016 kg/ha) | GALAP herbicidal rating (GALAP Galium [21]; rate 0.032 kg/ha) | GALAP herbicidal rating (GALAP Galium [21]; rate 0.062 kg/ha) | GALAP herbicidal rating (GALAP Galium [21]; rate 0.125 kg/ha) | CASOB herbicidal rating (CASOB Sicklepod [22]; rate 0.016 kg/ha) | CASOB herbicidal rating (CASOB Sicklepod [22]; rate 0.032 kg/ha) | CASOB herbicidal rating (CASOB Sicklepod [22]; rate 0.062 kg/ha) | CASOB herbicidal rating (CASOB Sicklepod [22]; rate 0.125 kg/ha) | ECHCG herbicidal rating (ECHOG Barnyardgrass [23]; rate 0.016 kg/ha) | ECHCG herbicidal rating (ECHOG Barnyardgrass [23]; rate 0.032 kg/ha) | ECHCG herbicidal rating (ECHOG Barnyardgrass [23]; rate 0.062 kg/ha) | ECHCG herbicidal rating (ECHOG Barnyardgrass [23]; rate 0.125 kg/ha) | CHEAL herbicidal rating ([24]; rate 0.016 kg/ha)
3.0: ABUTH herbicidal rating (ABUTH Velvetleaf [9]; rate 0.062 kg/ha) | SETVI herbicidal rating (SETVI Foxtail, Green [11]; rate 0.125 kg/ha) | Postemergence herbicidal rating GALAP (GALAP Galium [15]; 0.062 kg/ha) | Postemergence herbicidal rating ECHCG (ECHOG Barnyardgrass [17]; 0.062 kg/ha)
5.0: Postemergence herbicidal rating AMBEL (AMBEL Ragweed, Common [6]; 0.032 kg/ha) | Postemergence herbicidal rating AMBEL (AMBEL Ragweed, Common [6]; 0.062 kg/ha) | AMBEL herbicidal rating (AMBEL Ragweed, Common [10]; rate 0.125 kg/ha) | Postemergence herbicidal rating TRZAWR ([14]; 0.016 kg/ha) | Postemergence herbicidal rating IPOHE ([19]; 0.008 kg/ha)
3.5: Postemergence herbicidal rating GLXMAW (GLXMAW Soybean, Williams [3]; 0.008 kg/ha)
1.0: Postemergence herbicidal rating ORYSAT (ORYSAT Rice, Tebonnet [8]; 0.016 kg/ha) | ORYSAT herbicidal rating (ORYSAT Rice, Tebonnet [16]; rate 0.062 kg/ha)
8.0: Postemergence herbicidal rating ZEAMX (ZEAMX Corn, Field [2]; 0.032 kg/ha) | ABUTH herbicidal rating (ABUTH Velvetleaf [9]; rate 0.125 kg/ha) | Postemergence herbicidal rating IPOHE ([19]; 0.016 kg/ha)
4.0: Postemergence herbicidal rating SETVI (SETVI Foxtail, Green [1]; 0.008 kg/ha) | Postemergence herbicidal rating SETVI (SETVI Foxtail, Green [1]; 0.016 kg/ha) | Postemergence herbicidal rating GLXMAW (GLXMAW Soybean, Williams [3]; 0.016 kg/ha) | Postemergence herbicidal rating GLXMAW (GLXMAW Soybean, Williams [3]; 0.032 kg/ha) | Postemergence herbicidal rating AMBEL (AMBEL Ragweed, Common [6]; 0.016 kg/ha) | Postemergence herbicidal rating CHEAL ([7]; 0.062 kg/ha) | Postemergence herbicidal rating ORYSAT (ORYSAT Rice, Tebonnet [8]; 0.062 kg/ha) | IPOHE herbicidal rating ([12]; rate 0.125 kg/ha)
6.5: CHEAL herbicidal rating ([24]; rate 0.032 kg/ha)
4.5: Postemergence herbicidal rating GLXMAW (GLXMAW Soybean, Williams [3]; 0.062 kg/ha) | Postemergence herbicidal rating TRZAWR ([14]; 0.008 kg/ha)
